Source: a melting point compilation (Tetko et al.; mined from patent text by program, amines drawn as free bases though some values may be those of a salt)

| melting point | SMILES |
| --- | --- |
| 276 to 278 °C | Cn1c(=O)[nH]c(=O)c2c1ncn2CC1OCCO1 |
| 205 to 207 °C | O=C(O)Cc1cnc(Cc2ccc(NC(=O)c3ccc(C(F)(F)F)cc3)cc2)n2ccnc12 |
| > 200 °C | N=c1[nH]c(=N)c2ncn(C3OC(CO)C(O)C3O)c2c(=N)[nH]1 (stereo not given) |
| 115 to 117 °C | Cc1ccc(Cc2cnc(NCC(O)COc3cccc(CN4CCCCC4)c3)[nH]c2=O)cn1 (stereo not given) |
| 72 to 75 °C | c1ccc(CN2CCC(NCc3ccc(OCc4ccnc5ccccc45)cc3)CC2)cc1 |
| 95 to 96 °C | CN(CCCCCC(=O)O)c1ccc(Br)cc1C=O |
| 266 °C | O=Cc1cccc(-c2cnc3cnc(-c4ccc(O)cc4)nc3c2)c1 |
| 90 to 91 °C | Cc1cc(OCC2CO2)c(N)c([N+](=O)[O-])c1 (stereo not given) |
| 142 to 144 °C | CCOC(=O)C1=CC2(CCC1S(=O)(=O)Nc1ccc(F)cc1Cl)OCCCCO2 (stereo not given) |
| 221 to 223 °C | O=C(O)CCNC(=O)C1CN(c2ccc(-c3noc(=O)[nH]3)cc2)C(=O)O1 (stereo not given) |
| 175 to 180 °C | CCCCCN(C(=O)Nc1ccc(C(=O)O)cn1)c1ccc2c(c1)C(C)(C)CCC2(C)C |
| 186 °C | Cc1nc2ccccc2c(=O)n1CCN1CCC(Nc2nc3ccccc3n2Cc2ccc(F)cc2)CC1 |
| 84 to 85 °C | CC(C)c1nn(-c2ccc(C(F)(F)F)cc2)cc1CO |
| 189 to 190 °C | CC(C)c1cccc(C(C)C)c1NC(=O)NCC1CCCc2ccccc21 (stereo not given) |
| 132 to 133 °C | Cc1oc(-c2ccccc2)nc1COc1ccc2cc(/C=C/C=O)oc2c1 |
| 96 to 98 °C | C1=C(c2ccccc2)CC(CN2CCN(c3ccccn3)CC2)CC1 (stereo not given) |
| 110 to 120 °C | COCCc1nc2c(N)nc(C)c(C)c2n1NC1CCOCC1 |
| 177 to 180 °C | COc1ccc(/C=C/C(=O)c2ccc(CC3SC(=O)NC3=O)cc2)cc1 (stereo not given) |
| 214 to 216 °C | Cc1cc2c(O)nccc2s1 |
| 132 to 133 °C | CC1(C)CC(S(=O)(=O)Cc2c(C(F)(F)F)nn(-c3ccccc3)c2Cl)=NO1 |
| 107 °C | Cc1ccc(C(OS(C)(=O)=O)(C(F)(F)F)C(F)(F)F)cc1C(OS(C)(=O)=O)(C(F)(F)F)C(F)(F)F |
| 164 to 167 °C | O=C(O)CC1CCc2c(n(Cc3ccccc3)c3ccccc23)S1 (stereo not given) |
| 96 to 99 °C | Cc1cc(C)c2nc(COc3ccc(CC4SC(=O)N(C(c5ccccc5)(c5ccccc5)c5ccccc5)C4=O)cc3)n(C)c2n1 (stereo not given) |
| 179 to 180 °C | Cc1ccc(-n2nc(C#N)cc2-c2ccc(S(C)(=O)=O)cc2)cc1Br |
| 144 to 146 °C | OC1(c2ccc(Cl)c(Cl)c2)CCNCC1 |

| melting point | SMILES |
| --- | --- |
| 127 to 128 °C | O=C(c1ccc(F)cc1)c1cccc(C#Cc2ccc(F)cc2)c1 |
| 199 to 200 °C | NC(=O)C1CCCc2c1c1cc(OCCCC(=O)O)ccc1n2Cc1ccccc1 (stereo not given) |
| > 280 °C | N#Cc1cccc(-c2nc(Nc3cnccn3)sc2-c2ccncn2)c1 |
| 105 to 107 °C | CNCC1Cc2cc(Cl)cc(-c3cccc(OC)c3OC)c2O1 (stereo not given) |
| 166 to 167 °C | COc1ccc2cc(C(=O)C(C)Br)ccc2c1Br (stereo not given) |
| 160 °C | CC(=O)OC1CSC(Oc2cccnc2Cl)C(OC(C)=O)C1OC(C)=O (stereo not given) |
| 114 to 115 °C | CC(=O)Nc1ccc(CO)cc1[N+](=O)[O-] |
| 171 to 175 °C | COc1ccc(C(=O)C2CCCCC2C(=O)O)cc1OC (stereo not given) |
| 198 to 200 °C | N#CC(C#N)=C(NCCN1CCCCC1)N1CCC(N2CCCCC2)CC1 |
| 213 to 214 °C | CC(C)(C)c1cc(C=O)c2c(c1O)CCC2 |
| 104 to 108 °C | COC(=O)c1ccc(CCC(C)NCC(O)c2cc3ccccc3o2)cc1 (stereo not given) |
| 41 to 42 °C | CC1(C)C=C(I)C(=O)C(C)(C)C1 |
| 216 to 218 °C | Nc1ccc(C(=O)N2CCCC(=O)c3sccc32)cc1 |
| 180 to 182 °C | CC(C)(C)OC(=O)Nc1ccc2[nH]c(C(=O)OCc3ccccc3)cc2c1 |
| 73 to 74 °C | Nc1ccc(CCc2nnco2)cc1 |
| 106 to 108 °C | CCCCCCCCCCCCCCSc1ccc(C(=O)O)s1 |
| 29 to 30 °C | CCCCCC/C=C/[C@@H](O)[C@H](CO)N=[N+]=[N-] |
| 152 to 153 °C | COc1ccc(O)c(C(=O)N2CC(Oc3ccc(NC(=O)OC(C)(C)C)cc3)C2)c1 |
| 318 °C | O=C1c2ccccc2C(=O)c2c1oc1ccc3cc(O)ccc3c21 |
| 138 to 139 °C | Oc1cnccc1CCCOc1cccnc1Cc1cccc(Br)c1 |
| 100 to 103 °C | O=C(OCCCCc1ccc2[nH]c(=O)oc2c1)C(F)(F)F |
| 38 to 40 °C | CCN(C(=O)COC(C)=O)C1=CC(C)(C)CC(C)=C1 |
| 60 to 62 °C | CCOC(=O)c1cc2c(cc1OCC)C(=O)C=CC2=O |
| 347 to 349 °C | O=c1[nH]c2cc(Cl)c(Cl)cc2c(O)c1-c1ccccc1 |
| 157 to 159 °C | N=C(N)NCCCOc1ccc2c(c1)NC(=O)C(CCC(=O)O)C2 (stereo not given) |

| melting point | SMILES |
| --- | --- |
| 270 to 290 °C | Cc1c(-c2ccccc2)sc2nc(Nc3ccccc3)[nH]c(=O)c12 |
| 105 to 107 °C | Cc1cnc2ccc(-c3cccc(C(F)(F)F)c3)nn12 |
| 85 to 87 °C | CC(=O)C(Cc1cc(Cl)cc(Cl)c1)C(C)=O |
| 45 to 46 °C | COC(C)(OC)C(C#N)=Cc1ccccc1 |
| 208 to 210 °C | N#Cc1cnccc1-c1c(-c2ccccc2)nn2ccccc12 |
| 198 to 203 °C | CCOC(OCC)c1cc(=O)[nH]c(N)n1 |
| 56 to 58 °C | C=CCSc1ccc(OCc2ccccc2)nn1 |
| 85 to 88 °C | COc1cc(CBr)c(OC)cc1Cl |
| 129 to 131 °C | O=C(O)C=Cc1ccccc1NC(=O)c1ccc(OCCCCc2ccccc2)cc1 |
| 39 to 41 °C | O=C(NCCSCc1cccc(F)c1)c1c(F)cccc1F |
| 233 °C | O=C(Nc1ccc2[nH]c(=O)oc2c1)C(=O)N1CCC(Cc2ccc(F)c(F)c2)CC1 |
| 206 to 208 °C | CCCCN(C(C)=O)C1NC(=O)N(c2ccc(OC(C)=O)cc2)C(=O)N1 |
| 148 °C | CS(=O)(=O)N1CCN([C@@H](CNS(=O)(=O)c2ccc(OCc3cccc4ccccc34)cc2)C(=O)NO)CC1 |
| 221 to 223 °C | O=C(c1cnc(Cl)nc1C(F)(F)F)N1Cc2cccn2Cc2ccccc21 |
| 198 to 200 °C | COc1cccc(C=CC(=O)C2C(=O)CCC2=O)c1O |
| 142 to 145 °C | CCN1CCC(=O)N(c2cc(Cl)ccc2C)C1=S |
| 54 to 55 °C | O=Cc1ccc(CC(=O)OCc2ccccc2)cc1 |
| 107 to 108 °C | COc1cccc(NN=C(Sc2ccc(Cl)cc2)C(C)=O)c1 |
| 175 °C | NOC(=O)C(=C(C(=O)C(F)(F)F)c1ccccc1)c1ccccc1 |
| 260 to 264 °C | O=C1c2ccccc2CNc2nc3ccc(Br)cc3c(Cl)c21 |
| 144 to 145 °C | COC(=O)C(=O)c1ccc(OCCOc2ccc3ccncc3c2)cc1 |
| 126 to 128 °C | CCC(C)N1CCC(CNc2ccc(Cl)cc2C(=O)Nc2ccc(C)cn2)CC1 (stereo not given) |
| 142 to 144 °C | O=C(Nc1ccc(OCCN2CCOCC2)c2ccccc12)c1cc(F)cc(N2CCCCCC2)c1 |
| 47 to 52 °C | Cc1cc(Br)cc(C)c1N([Si](C)(C)C)[Si](C)(C)C |

| SMILES | melting point |
| --- | --- |
| Cc1cc(CBr)c(CBr)cc1C | 116 to 120 °C |
